# ChEMBL document CHEMBL3853355, “Six new compounds from Atractylodes lancea and their hepatoprotective activities” (2016)
# Tested on: HepG2
# Assay: Hepatoprotective activity against N-acetyl-p-aminophenol-induced cell injury in human HepG2 cells assessed as cell survival at 10 uM after 48 hrs by MTT assay (reference value: 39.87%)
# Type: functional
# Conditions: HepG2, 48 h, read-out: Survival
row,Structure (SMILES),viability at 10 µM
1,O=c1c(-c2ccc(O)cc2)coc2c([C@@H]3O[C@H](CO)[C@@H](O)[C@H](O)[C@H]3O)c(O)ccc12 [PUERARIN],41.3%
2,COc1cc(C(=O)O)ccc1O[C@@H]1O[C@@H](C)[C@H](O)[C@@H](O[C@@H]2O[C@H](CO)[C@@H](O)[C@H](O)[C@H]2O)[C@H]1O,54.6%
3,COC(=O)c1cc(OC)c2c(c1-c1c(CO)cc(OC)c3c1OCO3)OCO2 [BICYCLOL],52.9%
4,C[C@@H]1O[C@@H](Oc2ccc(C(=O)O)cc2)[C@H](O)[C@H](O[C@@H]2O[C@H](CO)[C@@H](O)[C@H](O)[C@H]2O)[C@H]1O,54.7%
5,C/C(=C\Cc1cc(C(=O)O)cc2c1O[C@H](C(C)(C)O)[C@H]2O)CO,53.6%
6,COc1cc(-c2coc3c([C@@H]4O[C@H](CO)[C@@H](O)[C@H](O)[C@H]4O)c(O)ccc3c2=O)ccc1O,45.2%
